Assay results from PMC10962542, “Inhibition of Aurora‐A/N‐Myc Protein–Protein Interaction Using Peptidomimetics: Understanding the Role of Peptide Cyclization” (Chembiochem, 2023).
*1 amine or outer side, *2 acyl side, *3 side chain or, on linkers, in order; H or OH if unused. Where a SMILES comes first, the peptide text is derived from it. Bridges are numbered along the chain shown (N, C = ends). Maleimide(3,4-diyl) = O=C1NC(=O)C([*:2])=C1[*:1]

Experiments:
[1] = target: T1, N‐Myc/Aurora‐A interaction (Aurora‐A122‐403‐C290A/C393A) (Homo sapiens, UniProt O14965, C290A/C393A); experiment: competition fluorescence anisotropy (FA) assay against fluorescein labelled N‐Myc61‐89; assay type: binding; conditions: SD; note: equilibrated 2 h at room temperature
T1 construct: Aurora‐A 122‐403‐C290A/C393A protein was produced as described previously; made in house
T1 sequence (O14965 122-403 C290A/C393A): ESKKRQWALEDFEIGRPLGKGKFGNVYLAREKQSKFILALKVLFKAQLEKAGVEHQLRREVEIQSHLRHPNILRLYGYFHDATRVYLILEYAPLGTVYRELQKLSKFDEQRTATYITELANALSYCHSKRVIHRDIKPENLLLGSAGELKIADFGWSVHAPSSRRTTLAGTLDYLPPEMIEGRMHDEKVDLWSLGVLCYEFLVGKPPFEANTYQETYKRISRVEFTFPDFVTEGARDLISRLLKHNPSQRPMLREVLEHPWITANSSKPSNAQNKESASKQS
Description: Fluorescence anisotropy (FA) assays: All assays were performed using 384‐well plates (Greiner Bio‐one, UK). […] All samples were prepared in 25 mM Tris, 150 mM NaCl, 5 mM MgCl2, pH 7.5, and tested in triplicate using an EnVisionTM 2103 MultiLabel plate reader (Perkin Elmer; Waltham, MA, USA). The parameters were set as follows: Excitation wavelength=480 nm (30 nm bandwidth) and emission wavelength=535 nm (30 nm bandwidth). Measured data were processed and analysed as previously described.[31] Specifically, the perpendicular intensity (P) and parallel intensity (S) were subtracted by the control values and used for calculations of intensity and anisotropy using the following Equations 1, 2, 3, 4, and 5: (1) I=2PG+S (2) r=S-PG (3) Lb=r-rmin/λrmax-r+r-rmin (4) [drawing 1] (5) y=rmax+rmin-rmax/1+(x/x0)^p
For competition FA assays, the average anisotropy and the average standard deviation of the values derived from equation (2) were calculated and fit to a sigmoidal logistic model (equation (5)) using Origin 2021. […] Results are reported as IC50±SD, with data points representing the mean of three replicates and error bars indicating the corresponding SD. Where applicable, ΔΔG was determined as follows: ΔΔG=−RT ln (ΔIC50).

[2] = circular dichroism (CD) spectroscopy; assay type: physicochemical; conditions: 150 mM NaCl, 5 mM MgCl2, pH 7.5, 5 °C, n=2, free‐thiol (red) samples with 5 mol equivalents TCEP
Description: Circular dichroism (CD): All samples were prepared in Tris buffer (25 mM Tris, 150 mM NaCl, 5 mM MgCl2, pH 7.5) with the exception of free sulfhydryl peptides, to which Tris(2‐carboxyethyl)phosphine (TCEP; 5 mol eq. relative to the peptide) was added. CD spectra were recorded using an APP Chirascan CD spectropolarimeter and 1 mm pathlength quartz cuvettes. Sample concentrations were typically 30–120 μM, as determined by UV−V absorption based on a tryptophan extinction coefficient of 5600 M^−1 cm^−1 and, for mal‐constrained variants, a maleimide coefficient of 1700 M^−1 cm^−1.[16, 32] […] Spectra were recorded in duplicate at 5 °C, over wavelengths ranging from 290 to 180 nm, with data collected every 1 nm (1 nm s^−1). A background spectrum for CD buffer alone was also recorded and background ellipticity values were subtracted from raw sample ellipticity values (θ) when calculating mean residue ellipticities (MREs) using Equation 6: (6) MRE=(θλ-θ0)xMw/nxlxc
Where [θ]λ is the observed ellipticity at a given wavelength λ in mdeg, [θ]0 is the ellipticity observed for the buffer, Mw =molar weight of the peptide in g mol^−1, n=number of residues; c=sample concentration (mg mL^−1); l=pathlength of the cuvette in mm. Estimates of peptide % helicity were made using Equation 7, [33] (7) %helicity=(MRE222-MREcoil)x100/-425001-3/n
where MRE222 is the MRE value at 222 nm, MREcoil=640‐45T (with T in °C)=415 deg cm^2 dmol^−1 res^−1 at 5 °C, and n is the number of backbone amide bonds including the N‐terminal acetyl.

Compound | IC50 [1] | MRE222 (mean residue ellipticity at 222 nm) ([2]; 25 mM Tris, mean ± SD, SD) | % Helicity (estimated) ([2]; from MRE222 by equation 7, 25 mM Tris)
CSCC[C@@H]1NC(=O)[C@@H](NC(=O)[C@@H](NC(=O)[C@@H](NC(=O)[C@H](Cc2c[nH]c3ccccc23)NC(=O)[C@H](CO)NC(=O)[C@@H]2CCCN2C(=O)[C@@H]2CCCN2C(=O)[C@H](CCC(=O)O)NC(=O)[C@H](CO)NC(=O)[C@H](CO)NC(=O)[C@H](Cc2c[nH]cn2)NC(=O)[C@H](CCC(=O)O)NC(=O)[C@H](C)NC(=O)[C@H](Cc2ccccc2)NC(=O)CNC(=O)[C@H](CCCNC(=N)N)NC(=O)[C@H](CO)NC(=O)[C@@H]2CCCN2C(=O)[C@H](CO)NC(=O)[C@H](CC(C)C)NC(C)=O)C(C)C)[C@@H](C)O)CSC2=C(SC[C@@H](C(=O)N[C@@H](CC(N)=O)C(=O)N[C@@H](CCC(=O)O)C(=O)N[C@@H](CC(C)C)C(=O)N[C@@H](Cc3c[nH]c4ccccc34)C(=O)NCC(N)=O)NC(=O)[C@H](CC(C)C)NC(=O)[C@H](CC(C)C)NC1=O)C(=O)NC2=O [N-Myc 61-89 E80C/E84C mal] (Ac-LSPSRGFAEHSSEPPSWVTCMLLCNELWG-NH2; linker 20-24 via Maleimide(3,4-diyl)) | 86 ± 7 µM | – | –
CSCC[C@H](NC(=O)[C@H](CCC(=O)O)NC(=O)[C@@H](NC(=O)[C@@H](NC(=O)[C@H](Cc1c[nH]c2ccccc12)NC(=O)[C@H](CO)NC(=O)[C@@H]1CCCN1C(=O)[C@@H]1CCCN1C(=O)[C@H](CCC(=O)O)NC(=O)[C@H](CO)NC(=O)[C@H](CO)NC(=O)[C@H](Cc1c[nH]cn1)NC(=O)[C@H](CCC(=O)O)NC(=O)[C@H](C)NC(=O)[C@H](Cc1ccccc1)NC(=O)CNC(=O)[C@H](CCCNC(=N)N)NC(=O)[C@H](CO)NC(=O)[C@@H]1CCCN1C(=O)[C@H](CO)NC(=O)[C@H](CC(C)C)NC(C)=O)C(C)C)[C@@H](C)O)C(=O)N[C@H]1CSC2=C(SC[C@@H](C(=O)N[C@@H](CC(C)C)C(=O)N[C@@H](Cc3c[nH]c4ccccc34)C(=O)NCC(N)=O)NC(=O)[C@H](CC(N)=O)NC(=O)[C@H](CCC(=O)O)NC(=O)[C@H](CC(C)C)NC1=O)C(=O)NC2=O [N-Myc 61-89 L82C/E86C mal] (Ac-LSPSRGFAEHSSEPPSWVTEMCLENCLWG-NH2; linker 22-26 via Maleimide(3,4-diyl)) | 69 ± 18 µM | – | –
CC(=O)N[C@@H](CC(C)C)C(=O)N[C@@H](CO)C(=O)N1CCC[C@H]1C(=O)N[C@@H](CO)C(=O)N[C@@H](CCCNC(=N)N)C(=O)NCC(=O)N[C@@H](Cc1ccccc1)C(=O)N[C@@H](C)C(=O)N[C@@H](CCC(=O)O)C(=O)N[C@@H](Cc1c[nH]cn1)C(=O)N[C@@H](CO)C(=O)N[C@@H](CO)C(=O)N[C@@H](CCC(=O)O)C(=O)N1CCC[C@H]1C(=O)N1CCC[C@H]1C(=O)N[C@@H](CO)C(=O)N[C@@H](Cc1c[nH]c2ccccc12)C(=O)N[C@H](C(=O)N[C@H](C(=O)N[C@@H](CCC(=O)O)C(=O)N[C@H]1CSC2=C(SC[C@@H](C(=O)N[C@@H](CCC(=O)O)C(=O)N[C@@H](CC(C)C)C(=O)N[C@@H](Cc3c[nH]c4ccccc34)C(=O)NCC(N)=O)NC(=O)[C@H](CCC(=O)O)NC(=O)[C@H](CC(C)C)NC(=O)[C@H](CC(C)C)NC1=O)C(=O)NC2=O)[C@@H](C)O)C(C)C [N-Myc 61-89 M81C/N85C mal] (Ac-LSPSRGFAEHSSEPPSWVTECLLECELWG-NH2; linker 21-25 via Maleimide(3,4-diyl)) | 133 ± 3 µM | – | –
CSCC[C@H](NC(=O)[C@@H]1CSC2=C(SC[C@H](NC(=O)[C@@H]3CCCN3C(=O)[C@@H]3CCCN3C(=O)[C@H](CCC(=O)O)NC(=O)[C@H](CO)NC(=O)[C@H](CO)NC(=O)[C@H](Cc3c[nH]cn3)NC(=O)[C@H](CCC(=O)O)NC(=O)[C@H](C)NC(=O)[C@H](Cc3ccccc3)NC(=O)CNC(=O)[C@H](CCCNC(=N)N)NC(=O)[C@H](CO)NC(=O)[C@@H]3CCCN3C(=O)[C@H](CO)NC(=O)[C@H](CC(C)C)NC(C)=O)C(=O)N[C@@H](Cc3c[nH]c4ccccc34)C(=O)N[C@@H](C(C)C)C(=O)N[C@@H]([C@@H](C)O)C(=O)N1)C(=O)NC2=O)C(=O)N[C@@H](CC(C)C)C(=O)N[C@@H](CC(C)C)C(=O)N[C@@H](CCC(=O)O)C(=O)N[C@@H](CC(N)=O)C(=O)N[C@@H](CCC(=O)O)C(=O)N[C@@H](CC(C)C)C(=O)N[C@@H](Cc1c[nH]c2ccccc12)C(=O)NCC(N)=O [N-Myc 61-89 S76C/E80 mal] (Ac-LSPSRGFAEHSSEPPCWVTCMLLENELWG-NH2; linker 16-20 via Maleimide(3,4-diyl)) | 147 ± 13 µM | – | –
CSCC[C@@H]1NC(=O)[C@H](CCC(=O)O)NC(=O)[C@@H](NC(=O)[C@@H](NC(=O)[C@H](Cc2c[nH]c3ccccc23)NC(=O)[C@H](CO)NC(=O)[C@@H]2CCCN2C(=O)[C@@H]2CCCN2C(=O)[C@H](CCC(=O)O)NC(=O)[C@H](CO)NC(=O)[C@H](CO)NC(=O)[C@H](Cc2c[nH]cn2)NC(=O)[C@H](CCC(=O)O)NC(=O)[C@H](C)NC(=O)[C@H](Cc2ccccc2)NC(=O)CNC(=O)[C@H](CCCNC(=N)N)NC(=O)[C@H](CO)NC(=O)[C@@H]2CCCN2C(=O)[C@H](CO)NC(=O)[C@H](CC(C)C)NC(C)=O)C(C)C)CSC2=C(SC[C@@H](C(=O)N[C@@H](CCC(=O)O)C(=O)N[C@@H](CC(N)=O)C(=O)N[C@@H](CCC(=O)O)C(=O)N[C@@H](CC(C)C)C(=O)N[C@@H](Cc3c[nH]c4ccccc34)C(=O)NCC(N)=O)NC(=O)[C@H](CC(C)C)NC1=O)C(=O)NC2=O [N-Myc 61-89 T79C/L83C mal] (Ac-LSPSRGFAEHSSEPPSWVCEMLCENELWG-NH2; linker 19-23 via Maleimide(3,4-diyl)) | 99 ± 2 µM | – | –
CSCC[C@H](NC(=O)[C@H](CCC(=O)O)NC(=O)[C@@H](NC(=O)[C@H](CS)NC(=O)[C@H](Cc1c[nH]c2ccccc12)NC(=O)[C@H](CO)NC(=O)[C@@H]1CCCN1C(=O)[C@@H]1CCCN1C(=O)[C@H](CCC(=O)O)NC(=O)[C@H](CO)NC(=O)[C@H](CO)NC(=O)[C@H](Cc1c[nH]cn1)NC(=O)[C@H](CCC(=O)O)NC(=O)[C@H](C)NC(=O)[C@H](Cc1ccccc1)NC(=O)CNC(=O)[C@H](CCCNC(=N)N)NC(=O)[C@H](CO)NC(=O)[C@@H]1CCCN1C(=O)[C@H](CO)NC(=O)[C@H](CC(C)C)NC(C)=O)[C@@H](C)O)C(=O)N[C@@H](CS)C(=O)N[C@@H](CC(C)C)C(=O)N[C@@H](CCC(=O)O)C(=O)N[C@@H](CC(N)=O)C(=O)N[C@@H](CCC(=O)O)C(=O)N[C@@H](CC(C)C)C(=O)N[C@@H](Cc1c[nH]c2ccccc12)C(=O)NCC(N)=O [N-Myc 61-89 V78C/L82C red] (Ac-LSPSRGFAEHSSEPPSWCTEMCLENELWG-NH2) | – | -1692 ± 70 deg cm^−1 dmol^−1 res^−1 | 6 ± 1%
CSCC[C@H](NC(=O)[C@H](CCC(=O)O)NC(=O)[C@@H](NC(=O)[C@@H](NC(=O)[C@H](Cc1c[nH]c2ccccc12)NC(=O)[C@H](CO)NC(=O)[C@@H]1CCCN1C(=O)[C@@H]1CCCN1C(=O)[C@H](CCC(=O)O)NC(=O)[C@H](CO)NC(=O)[C@H](CO)NC(=O)[C@H](Cc1c[nH]cn1)NC(=O)[C@H](CCC(=O)O)NC(=O)[C@H](C)NC(=O)[C@H](Cc1ccccc1)NC(=O)CNC(=O)[C@H](CCCNC(=N)N)NC(=O)[C@H](CO)NC(=O)[C@@H]1CCCN1C(=O)[C@H](CO)NC(=O)[C@H](CC(C)C)NC(C)=O)C(C)C)[C@@H](C)O)C(=O)N[C@@H](CC(C)C)C(=O)N[C@H]1CSC2=C(SC[C@@H](C(=O)N[C@@H](Cc3c[nH]c4ccccc34)C(=O)NCC(N)=O)NC(=O)[C@H](CCC(=O)O)NC(=O)[C@H](CC(N)=O)NC(=O)[C@H](CCC(=O)O)NC1=O)C(=O)NC2=O [N-Myc 61-89L83C/L87C mal] (Ac-LSPSRGFAEHSSEPPSWVTEMLCENECWG-NH2; linker 23-27 via Maleimide(3,4-diyl)) | 129 ± 3 µM | – | –
